Measurements: paper PMC11231141, “Ube3a unsilencer for the potential treatment of Angelman syndrome” (Nature Communications, 2024)
Each block holds one molecule with its values, some of them ahead of it.

How the values were obtained:
Ube3a-ATS = assay: quantitative RT-PCR of Ube3a-ATS in Ube3a m-/p+ primary neurons; type: cell-based, mouse; conditions: 72 h at DIV7, 0.3 µM topotecan, 1 µM (S)- or (R)-PHA533533, 0.1 µM 2, 0.1 µM 3, 0.3 µM (±)-4, 5 µM (S,R)-5
Description: Next, 1 ml of Neurobasal Plus medium (A3582901, ThermoFisher) containing 5% FBS (TMS-013-B; MilliporeSigma) was added to the cortical mixture to deactivate the papain and subsequently triturated. […] Isolated cortical neurons were plated onto poly-D-lysine coated 384-well plates at 2 × 10^4 cell/well for screening and dose-response assays, or 6-well plates at 1 × 10^6 cell/well for molecular and biochemical assays (western blot, ASO-dependent knock-down, and quantitative RT-PCR).

UBE3A protein = assay: western blot of UBE3A protein in Ube3a m-/p+ primary neurons; type: cell-based, mouse; conditions: 72 h at DIV7, 0.3 µM topotecan, 1 µM (S)-PHA533533, 0.1 µM 3, 0.3 µM (±)-4
Description: 2’ MOE gapmer antisense oligonucleotides (ASOs) designed to target mouse Cdk2 sequence […], Cdk5 sequence […], Top1 sequence […], and scrambled […] sequence as a negative control (Integrated DNA Technologies) were formulated in water and added to cultured cortical neurons grown on 6-well plates at DIV5 at a final concentration of 10 μM. Neurons were further cultured and treated at DIV7 with vehicle (0.1% DMSO) or the indicated compounds for 72 h. For western blot analysis, neurons were washed once with PBS and then lysed using RIPA buffer (50 mM Tris-HCl pH 8.0, 150 mM NaCl, 1% NP−40, 0.5% Na-deoxycholate, 0.5% SDS) and protease inhibitor cocktail (P8340, MilliporeSigma) on ice.

[1] = cytotoxicity (% viable DAPI/NeuN neurons vs DMSO) in mouse primary neurons; type: cell-based; conditions: primary cortical neurons from E15.5 mouse embryos, mean ± SEM, n = 3
Description: (§1) Immunofluorescence for high-content imaging analysis was performed as previously described with slight modifications. Following drug treatment at DIV7, primary neurons were fixed at DIV10 with 4% paraformaldehyde in PBS at room temperature (RT) for 10 min. After three brief washes in PBS, neurons were permeabilized with PBS/1% Triton-X-100 at RT for 10 min, followed by blocking with PBS including 5% normal goat serum and 0.2% Triton-X-100 (NGST) at RT. […] All acquired images were analyzed by CellProfiler[48]. The mean GFP signal from each drug-treated well was normalized to the average mean GFP signal from DMSO-treated neurons. […] Fluorescent images were acquired using a Nikon Ti2 eclipse fluorescence microscope (Nikon Instruments Inc.) and analyzed using Nikon NIS-Elements software (Nikon Instruments Inc.). Antibody-enhanced UBE3A-YFP fluorescence intensities were determined from DAPI and NeuN double-positive neurons in drug-treated wells and normalized to neurons in DMSO-treated wells. The cytotoxicity of a compound was determined by calculating the percentage of neurons (DAPI and NeuN double-positive cells) alive in drug-treated wells compared to the DMSO-treated wells. For determining the effectiveness of unsilencing, the percent neurons expressing GFP signal in neurons (DAPI and NeuN double-positive cells) in drug-treated wells was thresholded such that the percent GFP positive neurons in DMSO-treated wells was set to ~5%. Concentrations where more than 10% of neurons were dead compared to DMSO-treated wells were manually removed and the last included data point was set as a maximum efficacy. Sigmoidal curve fitting for the dose-response analysis was performed using GraphPad Prism software version 8.0 (GraphPad Software).

paternal UBE3A-YFP = paternal UBE3A-YFP unsilencing, high-content imaging in mouse primary neurons (Ube3a m+/pYFP); type: cell-based; conditions: for Emax / EC50: Mus musculus, 72 h, mean ± SEM; for Emax: Neuron, highest concentration with at least 90% neurons alive, read-out: EMAX (% patUBE3A-YFP+); for EC50: Primary neuron, n = 3; for capability to unsilence paternal Ube3a (analog test): mouse primary neurons, up to 5 μM
Description: We aimed to identify novel unsilencers of paternal Ube3a by employing a previously developed high-content small molecule screen. This screen was performed in primary neurons derived from knock-in mice harboring a yellow fluorescent protein (YFP) fused to the paternal allele of Ube3a[25], allowing for fluorescence-based identification of the paternal allele-specific expression of UBE3A-YFP (detected by a GFP antibody enhancement) (Fig. 1a and Supplementary Table 1). We screened >2800 compounds from a Pfizer chemogenetic library, which contains small molecules selected to cover a broad spectrum of pharmacological space. We screened small molecules at 1 μM concentration and used 0.3 μM topotecan, a topoisomerase inhibitor that can downregulate the Ube3a-ATS and unsilence the paternal Ube3a, as a positive control (Fig. 1b)[10]. Small molecules that increase the UBE3A-YFP signal represent putative paternal Ube3a unsilencers.
as §1

TOP1 = target: T1, TOP1 (Homo sapiens, UniProt P11387); assay: TOP1-mediated DNA relaxation assay; type: biochemical; conditions: 3 μM topotecan; increasing concentrations of (S)- and (R)-PHA533533; vs DMSO
T1 construct: purchased TopoGEN
T1 sequence (P11387 1-765): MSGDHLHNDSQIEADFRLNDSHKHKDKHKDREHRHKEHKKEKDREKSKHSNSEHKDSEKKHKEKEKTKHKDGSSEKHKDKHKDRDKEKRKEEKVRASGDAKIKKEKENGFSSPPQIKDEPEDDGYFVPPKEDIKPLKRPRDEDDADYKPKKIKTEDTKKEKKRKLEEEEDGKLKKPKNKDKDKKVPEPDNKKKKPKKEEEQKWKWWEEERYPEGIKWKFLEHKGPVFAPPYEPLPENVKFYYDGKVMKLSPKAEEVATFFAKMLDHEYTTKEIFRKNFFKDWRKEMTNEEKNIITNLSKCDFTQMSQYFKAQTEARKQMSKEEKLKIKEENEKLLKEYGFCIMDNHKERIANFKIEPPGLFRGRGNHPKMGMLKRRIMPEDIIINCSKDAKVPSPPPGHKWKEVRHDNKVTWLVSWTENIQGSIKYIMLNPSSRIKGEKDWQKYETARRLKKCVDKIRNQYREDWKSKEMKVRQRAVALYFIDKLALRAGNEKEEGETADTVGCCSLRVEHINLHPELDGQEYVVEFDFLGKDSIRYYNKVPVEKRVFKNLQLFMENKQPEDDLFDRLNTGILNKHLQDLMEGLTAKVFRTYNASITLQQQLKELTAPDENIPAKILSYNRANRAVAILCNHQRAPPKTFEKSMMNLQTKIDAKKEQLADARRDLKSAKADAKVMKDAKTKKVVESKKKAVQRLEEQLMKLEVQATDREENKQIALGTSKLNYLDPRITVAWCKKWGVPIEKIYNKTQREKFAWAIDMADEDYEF
Description: […]. […] […]. […] […]. […] […].
The Pfizer chemogenetic library and PHA533533 derivatives were provided by the Compound Transfer Program (CTP) at Pfizer. Topotecan hydrochloride salt was purchased from Cayman Chemicals (Item No. 14129). […] […]. The Human Topoisomerase I Assay Kit was purchased from TopoGEN and performed according to the manufacturer’s protocols.

Compound: C[C@@H](C(=O)Nc1cc(C2CC2)[nH]n1)c1ccc(N2CCCC2=O)cc1 [(R)-PHA533533]
- inhibition of TOP1 catalytic activity to relax supercoiled DNA (TOP1): had no effect on the TOP1 activity
- paternal UBE3A-YFP immunofluorescent signal (paternal UBE3A-YFP): minimal UBE3A-YFP immunofluorescent signal

Compound: O=C(Cc1ccc2ccccc2c1)Nc1cc(C2CC2)[nH]n1 [Compound 2]
- relative quantity of Ube3a-ATS vs DMSO (Ube3a-ATS): downregulated
- relative quantity of Ube3a-ATS vs DMSO (Ube3a-ATS; listed as compound 2): did not reach statistical significance
- CC50 at 72 h [1]: 570 ± 90 nM
- Emax (paternal UBE3A-YFP): 71.4 ± 7.34%
- EC50 (paternal UBE3A-YFP): 140 ± 20 nM
- capability to unsilence paternal Ube3a (analog test) (paternal UBE3A-YFP): could unsilence paternal Ube3a

Now from value to molecule, other results behind:

- EC50 (paternal UBE3A-YFP): 100 ± 10 nM
Compound: O=C(Cc1ccc(-c2ccccc2)cc1)Nc1cc(C2CC2)[nH]n1 [Compound 3]
- relative quantity of Ube3a-ATS vs DMSO (Ube3a-ATS): downregulated
- UBE3A protein levels vs DMSO (UBE3A protein): significantly increased
- CC50 at 72 h [1]: 300 ± 30 nM
- Emax (paternal UBE3A-YFP): 43.5 ± 8.24%
- capability to unsilence paternal Ube3a (analog test) (paternal UBE3A-YFP): could unsilence paternal Ube3a

- EC50 (paternal UBE3A-YFP): 260 ± 100 nM
Compound: CC(C(=O)Nc1cc(C2CC2)[nH]n1)c1ccc(N2CCCC2)cc1 (racemic) [Compound (±)-4]
- relative quantity of Ube3a-ATS vs DMSO (Ube3a-ATS): downregulated
- UBE3A protein levels vs DMSO (UBE3A protein): significantly increased
- CC50 at 72 h [1]: 1460 ± 240 nM
- Emax (paternal UBE3A-YFP): 65.7 ± 15.4%
- capability to unsilence paternal Ube3a (analog test) (paternal UBE3A-YFP): could unsilence paternal Ube3a

- EC50 (paternal UBE3A-YFP): 5300 ± 370 nM
Compound: CC(C(=O)Nc1cc(C2CC2)[nH]n1)c1ccc(N2CCC(O)C2=O)cc1 [Compound (S,R)-5]
- relative quantity of Ube3a-ATS vs DMSO (Ube3a-ATS): downregulated
- CC50 at 72 h [1]: 12800 ± 780 nM
- Emax (paternal UBE3A-YFP): 58.3 ± 9.24%
- capability to unsilence paternal Ube3a (analog test) (paternal UBE3A-YFP): could unsilence paternal Ube3a
